ChEMBL document CHEMBL1141549, “Synthesis and antihyperglycemic activity of novel N-acyl-2-arylethylamines and N-acyl-3-coumarylamines” (2008)

Each compound was assayed on Rattus norvegicus (assay: Antihyperglycemic activity in sucrose loaded diabetic Sprague-Dawley rat model assessed as reduction of plasma glucose levels at 100 mg/kg, po).
Format: functional
Parameters: scale not given: the % may be the effect or the level left

| SMILES | Activity [%] |
| --- | --- |
| COc1cc(/C=C/C(=O)NCCc2ccc(OC)c(OC)c2)ccc1O | 30.7 |
| CC(C)(C)c1cc(C(C)(C)C)c2oc(=O)c(NC(=O)/C=C/c3cccc(C(F)(F)F)c3)cc2c1 | 21.1 |
| CC(C)(C)c1cc(C(C)(C)C)c2oc(=O)c(NC(=O)/C=C/c3ccccc3)cc2c1 | 8.89 |
| COc1ccc(Cl)cc1C(=O)NCCc1ccc(S(=O)(=O)NC(=O)NC2CCCCC2)cc1 [GLYBURIDE] | 33.7 |
| COc1ccc(CCNC(=O)/C=C/c2cc(OC)c(OC)c(OC)c2)cc1OC | 2.41 |
| CN(C)C(=N)NC(=N)N [METFORMIN] | 12.9 |
| COc1ccc(CCNC(=O)/C=C/c2cccc(C(F)(F)F)c2)cc1OC | 32.8 |
| CC(C)(C)c1cc(C(C)(C)C)c2oc(=O)c(NC(=O)c3ccccc3)cc2c1 | 23.3 |
| COc1ccc(CCNC(=O)/C=C/c2ccc(Cl)cc2)cc1OC | 21.5 |
| COc1ccc(/C=C/C(=O)NCCc2ccc(OC)c(OC)c2)cc1 | 19.5 |
| COc1ccc(CCNC(=O)/C=C/c2ccc(F)cc2)cc1OC | 23.4 |
| COc1ccc(CCNC(=O)/C=C/c2ccccc2)cc1OC | 20.1 |
| O=C(Nc1cc2ccccc2oc1=O)c1ccccc1 | 10.7 |
| O=C(/C=C/c1ccccc1)Nc1cc2ccccc2oc1=O | 22.3 |
| COc1cccc(/C=C/C(=O)NCCc2ccc(OC)c(OC)c2)c1 | 25.2 |
